Structures are written as SMILES. Values joined by “and” are separate entries in the source; they are usually repeats but may differ in a detail not shown here. Equal values may be shown once.

Series [1] has as its system recombinant laccase D. Kind of series: Denim swatch bleaching, laccase and mediator concentration, Launder-O-meter (Example 10). The format is biochemical, Cerrena unicolor. The arrangement: key: TCD = √(ΔL²+Δa²+Δb²) in CIE Lab, before vs after treatment. As to conditions: 60° C., pH 6. How it is done: Laccase enzyme, derived from Cerrena unicolor (Example 7, 8570 U/ml, 4 mg protein/ml) was used in the experiments.
The enzyme incubations were done in an ATLAS LP 2 Launder-O-meter at different conditions in relation to pH, temperature, enzyme concentration and mediator concentration.
Reactions were carried out in 500 ml stainless steel reaction vessels containing 100 ml of liquid. To each vessel five (7×7 cm) stonewashed denim swatches (ACG denim style 80270) and 6 steel balls of 6 mm diameter were added. The reactions vessels were closed and entered into the launder-O-meter that was pre-heated to the desired temperature. The incubation was carried out for 30 minutes after which the swatches were washed with ‘running’ tap water, spin dried in an AEG IPX4 centrifuge and dried with an Elna Press Electronic iron at program cotton and evaluated.
The color of the five denim swatches is measured with a Minolta Chromameter CR 310 in the CIE Lab color space with a D 65 light source. Measurements were done before and after laccase treatment and the results of the five swatches were averaged. The total color difference (TCD) is calculated. The total color difference can be calculated with the formula: TCD=√(ΔL)^2+(Δa)^2+(Δb)^2.
The effect of laccase and mediator concentration was evaluated running the experiments in the tables below at pH 6 (50 mM monosodium phosphate buffer pH adjusted with sodium hydroxide 4N solution) and a temperature of 60° C.
The experiments were done with syringamide (SA)- and syringonitrile (SN) mediator.
100 ml buffer was added to a beaker with five swatches, 7×7 cm. The total weight 12 g, (denim:liquor ratio=1:8).
The amounts of syringamide or syringonitrile mediator as indicated in the tables below were added to each beaker as a dilution of a 275 mM SA—or—SN stock solution in 98% methanol. The laccase was added to each beaker as indicated in the tables below, as dilution of a 400 units/ml laccase stock solution. The beakers were closed and processed at 60° C. as described in the example 8. The swatches were evaluated as described in example 8.

The test system of series [2] is Thielavia sp. laccase (Ecostone LCC10). Put plainly: Bleaching of solubilized indigo, Thielavia sp. laccase with mediators (Example 2). The format is biochemical. To be noted: laccase 10 ppm, pH 5, 50° C., 2 hours, n = 2. How it is done: An assay for the bleaching of the solubilized indigo substrate by laccase/mediator combinations was performed in a 96-well microtitre plate as follows
(§1) A saturated solution of indigo in N-methylpyrrolidone (NMP) was prepared by stirring indigo (30 mg) in NMP (10 ml) at room temperature for 5 hours. The NMP solution was diluted 10-fold into an aqueous buffer solution resulting in a blue solution. For example, dilution into 50 mM sodium acetate buffer at pH 5, or 50 mM sodium phosphate buffer at pH 7. Solutions were shaken well immediately before use.
(§2) The assay for the bleaching of the solubilized indigo substrate was performed in a 96-well microtitre plate whereby each well received the soluble indigo solution in 50 mM sodium acetate buffer at pH 5 (180 uL), laccase (10 ppm enzyme) and mediator solution (from a 20 mM stock solution in methanol). The total volume of each well was adjusted to 200 uL with deionzed water. A control containing laccase only was run in duplicate. The plate was sealed and incubated at 50° C. for 2 hours at 800 rpm on a heated agitator (Thermomixer, Eppendorf). Following this period, the plates were unsealed and a solution of ascorbic acid (20 uL of a 10% aqueous solution) added to each well in order to reduce the oxidized forms of the mediators. The extent of indigo bleaching was then assessed by determining the absorbance for each well at 600 nm using a microtitre plate reader. The lower the absorbance reading, the greater the extent of indigo bleaching.

For series [3], the system named is Cerrena sp. laccase. Put plainly: Soluble indigo bleaching at two pH values, Cerrena sp. laccase (Example 3). Format: biochemical. How it is done:
as §1, §2
(§3) Laccases derived from Myceliophtora (Denilite® II, Novozymes, Bagsvaerd, Denmark), Thielavia (Ecostone LCC10, AB enzymes, Darmstadt, Germany) and Cerrena sp. were assessed for their ability to bleach solubilized indigo in conjunction with low molecular weight mediators at two pH values.
(§4) Bleaching of solubilized indigo in 96-well microtitre plates was performed as described in Example 1, using 3 different laccases at pH values of 5 and 7.

The test system of series [4] is C. unicolor laccase. Put plainly: Stability of mediators in the presence of C. unicolor laccase, LC/MS of supernatant (Example 6). Format: physicochemical. To be noted: for Initial Peak Area / Final Peak Area: LC/MS; for Initial Peak Area: 1 mM standard solution of mediator; for Final Peak Area: supernatant after denim disk bleaching; for Final Peak Area / % Remaining: 2 hours at 50° C.; for % Remaining: supernatant after contact with laccase and denim. On the procedure:
Aliquots of supernatant were analyzed by LC/MS following the denim disk bleaching protocol described in Example 5 in order to determine the final mediator concentrations in the supernatant following the 2 hour incubation period.
Standard solutions of the mediators were prepared by dilution of the methanolic stock solutions (20 mM) into deionized water, such that the final concentrations were 1 mM respectively for each of the three mediators methyl syringate (MS), 4-cyano-2,6-dimethoxyphenol (SN) and, 4-carboxamido-2,6-dimethoxyphenol (SA). Samples were analyzed using a Thermo Finnegan Quantum TSQ LC/MS system (Thermo Finnegan, San Jose, Calif.) operating in positive electrospray ionization mode. The liquid chromatography conditions were as follows: • Column; Agilent Zorbax SB-Aq, 2.1 mm×100 mm, […] silica • Solvent A; 20 mM Ammonium formate, pH 5.0 • Solvent B; 90% Methanol+10% solvent A • Flow rate; 250 uL/min • Injection volume; 5 uL • Elution program; 70% solvent A from 0 to 1 minute, to 30% A from 3 to 4 minutes, back to 70% A at 4.5 minutes, held at 70% A until 8 minutes overall.
The Mass spectrometry conditions were as follows: • Positive mode electrospray ionization (+ve ESI) in full scan mode, scanning from 175 to 240 Da in 0.5 seconds. • Spray voltage was 4200V, sheath gas flow rate 41 mL/min, aux gas flow rate at 15 mL/min. Tube lens voltage was 109V and capillary temperature was 270° C.

Series [5] has as its system Myceliophtora laccase (Denilite II). Kind of series: Soluble indigo bleaching at two pH values, Myceliophtora laccase (Example 3). Format: biochemical. On the procedure: as §1, §2, §3, §4
Series [6] deals with Thielavia laccase (Ecostone LCC10). Put plainly: Soluble indigo bleaching at two pH values, Thielavia laccase (Example 3). Format: biochemical. On the procedure:
as §1, §2, §3, §4

Where [7] appears, read: laccase 10 μl/l, mediator 0.10 mM.
Where [8] appears, read: laccase 10 μl/l, mediator 0.55 mM.
Where [9] appears, read: laccase 10 μl/l, mediator 1.00 mM.
Where [10] appears, read: laccase 33 μl/l, mediator 0.33 mM.
The mark [11] stands for this setting: laccase 33 μl/l, mediator 0.78 mM.
The mark [12] stands for this setting: laccase 55 μl/l, mediator 0.10 mM.
Setting [13] is: laccase 55 μl/l, mediator 0.55 mM.
[14] abbreviates: laccase 55 μl/l, mediator 1.00 mM.
Where [15] appears, read: laccase 78 μl/l, mediator 0.33 mM.
The mark [16] stands for this setting: laccase 78 μl/l, mediator 0.78 mM.
Where [17] appears, read: laccase 100 μl/l, mediator 0.10 mM.
[18] abbreviates: laccase 100 μl/l, mediator 0.55 mM.
Setting [19] is: laccase 100 μl/l, mediator 1.00 mM.

In the case of `COc1cc(C(N)=O)cc(OC)c1O` [SA, 4-carboxamido-2,6-dimethoxyphenol], the “TCD (total color difference)” value in series [1] (setting [7]) is 2.5; in series [1] (setting [8]), 3.6; in series [1] (setting [9]) it was 3.2; in series [1] (setting [10]) it was 4.6; in series [1] (setting [11]), 5.5; in series [1] (setting [12]), 3.1. Moreover, the “TCD (total color difference)” value in series [1] (setting [13]) is 5.3 and 5.8; in series [1] (setting [14]) it was 6.2; in series [1] (setting [15]), 4.4; in series [1] (setting [16]) it was 5.9; in series [1] (setting [17]) it was 3.2 and 2.9; in series [1] (setting [18]), 5.3. In addition, the “TCD (total color difference)” value in series [1] (setting [19]) is 5.6 and 6.0. Besides, the results for the “ΔA600 (change in absorbance at 600 nm relative to control)” value in series [2] (mediator 50 mM Concentration (head)) and in series [2] (mediator 500 mM Concentration (head)) were 0.088 and 0.170, respectively. Moreover, the “ΔA600 Cerrena” value is 0.142 in series [3] (pH 5, mediator 250 uM) and 0.128 in series [3] (pH 7, mediator 250 uM). Besides, in series [4], the “Initial Peak Area” value was 122 × 10^7. The “Final Peak Area” value in series [4] is 0.94 × 10^7. Moreover, in series [4], the “% Remaining” value is recorded as 7.8%. In addition, the “ΔA600 Myceliophtora” value was found to be 0.254 in series [5] (pH 5, mediator 250 uM) and 0.220 in series [5] (pH 7, mediator 250 uM). Further, the “ΔA600 Thielavia” value in series [6] (pH 5, mediator 250 uM) is recorded as 0.170; in series [6] (pH 7, mediator 250 uM), 0.162.

`COc1cc(C#N)cc(OC)c1O` [SN, 4-cyano-2,6-dimethoxyphenol]: the “TCD (total color difference)” value in series [1] (setting [7]) turned out to be 2.7; in series [1] (setting [8]), 3.4; in series [1] (setting [9]), 3.8; in series [1] (setting [10]), 4.4; in series [1] (setting [11]), 5.5; in series [1] (setting [12]), 3.5. The “TCD (total color difference)” value is 6.0 and 6.3 in series [1] (setting [13]); 7.0 in series [1] (setting [14]); 5.6 in series [1] (setting [15]); 7.1 in series [1] (setting [16]); 4.0 and 4.1 in series [1] (setting [17]); 7.1 in series [1] (setting [18]). Further, the “TCD (total color difference)” value in series [1] (setting [19]) is 7.6 and 8.1. Further, the “Initial Peak Area” value in series [4] is listed as 35.6 × 10^7. Further, the “Final Peak Area” value in series [4] is listed as 35.2 × 10^7. Also, in series [4], the “% Remaining” value worked out at 98.9%.

The values above are taken from US8282688B2, “Laccase mediators and methods of use” (Danisco US Inc., priority 2006, dated 2012).
